The results in this text go back to ChEMBL document CHEMBL2202954, “The effect of PLC-γ2 inhibitors on the growth of human tumour cells” (2012).

Type in all cases: functional
Test [1] relates to MDA-MB-468. Kind of test: Cytotoxicity against human MDA-MB-468 cells assessed as cellular growth at 10 uM by SRB assay.
The subject of test [2] is UO-31. Kind of test: Cytotoxicity against human UO31 cells assessed as cellular growth at 10 uM by SRB assay.
For test [3], the system named is TK-10. Description: Cytotoxicity against human TK10 cells assessed as cellular growth at 10 uM by SRB assay. Background: In SRB staining, fixed cells bind dye roughly in proportion to their protein.
Test [4] has as its system RXF 393. Kind of test: Cytotoxicity against human RXF393 cells assessed as cellular growth at 10 uM by SRB assay.
The subject of test [5] is A498. Description: Cytotoxicity against human A498 cells assessed as cellular growth at 10 uM by SRB assay.
Test [6] relates to SK-OV-3. Description: Cytotoxicity against human SKOV3 cells assessed as cellular growth at 10 uM by SRB assay.
Test [7] in a line: Cytotoxicity against human NCI-ADR-RES cells assessed as cellular growth at 10 uM by SRB assay.
Test [8] concerns OVCAR-8. Description: Cytotoxicity against human OVCAR8 cells assessed as cellular growth at 10 uM by SRB assay.
The subject of test [9] is IGROV-1. Kind of test: Cytotoxicity against human IGROV1 cells assessed as cellular growth at 10 uM by SRB assay.
For test [10], the system named is UACC-257. Description: Cytotoxicity against human UACC257 cells assessed as cellular growth at 10 uM by SRB assay.
Test [11] deals with SK-MEL-2. Description: Cytotoxicity against human SK-MEL-2 cells assessed as cellular growth at 10 uM by SRB assay.
The subject of test [12] is U-251. Description: Cytotoxicity against human U251 cells assessed as cellular growth at 10 uM by SRB assay.
The subject of test [13] is SNB-75. Description: Cytotoxicity against human SNB75 cells assessed as cellular growth at 10 uM by SRB assay.
Test [14] relates to SNB-19. Kind of test: Cytotoxicity against human SNB19 cells assessed as cellular growth at 10 uM by SRB assay.
Test [15] relates to KM12. Kind of test: Cytotoxicity against human KM12 cells assessed as cellular growth at 10 uM by SRB assay.
Test [16] has as its system COLO 205. Kind of test: Cytotoxicity against human COLO205 cells assessed as cellular growth at 10 uM by SRB assay.
Test [17] relates to NCI-H460. Kind of test: Cytotoxicity against human NCI-H460 cells assessed as cellular growth at 10 uM by SRB assay.
In test [18] the test system is EKVX. Description: Cytotoxicity against human EKVX cells assessed as cellular growth at 10 uM by SRB assay.
The test system of test [19] is A549. Kind of test: Cytotoxicity against human A549 cells assessed as cellular growth at 10 uM by SRB assay.
In test [20] the test system is CCRF-CEM. Description: Cytotoxicity against human CCRF-CEM cells assessed as cellular growth at 10 uM by SRB assay.

On to `O=C1N=C(c2ccccc2)S/C1=C\c1ccc2c(c1)OCO2`, for which the Activity was determined as 98.71% in test [1]; 86.92% in test [2]; 110.48% in test [3]; 115.74% in test [4]; 80.95% in test [5]; 98.47% in test [6]. Further, the Activity is 107.06% in [7]; 96.76% in [8]; 101.91% in test [9]; 92.39% in test [10]; 110.33% in test [11]; 90.93% in test [12]. Besides, the Activity came to 95.66% in test [13]; 98.6% in test [14]; 92.95% in test [15]; 101.56% in test [16]; 96.54% in test [17]; 98.04% in test [18]. For the same compound, the Activity in test [19] worked out at 95.78%; in test [20] it was 90.34%.

With `COc1cc(/C=c2/sc3nc4ccccc4n3c2=O)cc(I)c1O`, the Activity in test [1] is recorded as 71.12%; in test [2], 70.56%; in test [3], 116.5%; in test [4], 116.35%; in [5] it was 69.55%; in test [6] it was 96.7%. The Activity in test [7] is on record as 92.89%; in test [8], 97.39%; in [9] it was 110.46%; in [10], 105.01%; in test [11], 104.64%; in test [12], 101.21%. The Activity came to 114.58% in test [13]; 108.08% in test [14]; 80.63% in test [15]; 103.31% in test [16]; 95.07% in test [17]; 92.52% in test [18]. For the same compound, the results for the Activity in [19] and in [20] were 88.66% and 83.8%, respectively.

Consider `O=C(Nc1nc2ccc(Cl)cc2s1)c1ccc(Cl)cc1Cl`, for which the Activity is on record as 105.42% in test [1]; 101% in [2]; 88.34% in [3]; 112.15% in test [4]; 93.8% in test [5]; 105.26% in test [6]. Moreover, the Activity in [7] worked out at 98.55%; in test [8], 97.79%; in test [9], 103.26%; in test [10], 95.43%; in [11], 116.07%; in test [12], 93.57%. Besides, the Activity in [13] stood at 114.42%; in [14], 109.5%; in [15], 110.91%; in [16], 114.96%; in test [17], 100.4%; in [18], 82.69%. For the same compound, the Activity in test [19] came to 95.4%; in [20], 99.34%.

For `Cc1ccc(Cl)cc1NC(=O)c1sc2nc3c(cc2c1N)C(=O)CCC3`, the Activity is 8.44% in [1]; 83.44% in test [2]; 96.55% in test [3]; 42.15% in test [4]; 51.16% in test [5]; 42.36% in test [6]. For the same compound, the Activity is on record as 43.81% in [7]; 89.97% in [8]; 75.72% in [9]; 44.88% in test [10]; 64.51% in test [11]; 59.13% in test [12]. The Activity is 48.01% in test [13]; 68.14% in test [14]; 37.01% in test [15]; 39.71% in [16]; 28.15% in test [17]; 75.28% in [18]. Further, the Activity is listed as 53.86% in [19] and 49.18% in test [20].

For `Cc1cccc(-c2nc(-c3cccs3)no2)c1`, the Activity in [1] turned out to be 40.25%; in test [2], 59.19%; in test [3], 68.05%; in test [4], 126.03%; in [5], 82.09%; in [6], 94.86%. Besides, the Activity came to 95.15% in test [7]; 98.72% in test [8]; 61.64% in test [9]; 93.98% in [10]; 100.25% in test [11]; 82.28% in test [12]. Moreover, the Activity in [13] amounted to 85.75%; in test [14], 106.75%; in test [15], 104.19%; in [16] it was 111.56%; in test [17] it was 94.9%; in test [18], 84.59%. Also, the Activity in [19] is 100.01%; in test [20], 91.12%.

`O=C(Nc1ccc2oc(=O)ccc2c1)c1ccc(-c2ccc(Br)cc2)o1`: the Activity turned out to be 122.28% in [1]; 127.52% in [2]; 102.05% in [3]; 112.24% in test [4]; 101.8% in test [5]; 112.03% in test [6]. The Activity in [7] is 101.15%; in [8], 101.05%; in test [9], 126.49%; in [10], 114.76%; in [11], 121.49%; in [12] it was 98.16%. Besides, the Activity in test [13] worked out at 104.41%; in test [14] it was 105.93%; in test [15], 114.03%; in test [16], 124.46%; in test [17], 100.9%; in [18] it was 113.5%. Also, the Activity in test [19] is given as 100.63%; in test [20] it was 103.74%.

With `COc1ccc2[nH]c(C(=O)NCc3ccccc3)cc2c1`, the Activity in [1] is 99.1%; in [2], 75.52%; in [3] it was 120.94%; in test [4], 101.97%; in test [5], 92.89%; in test [6] it was 108.16%. For the same compound, the Activity in test [7] was determined as 102.25%; in test [8] it was 102.92%; in test [9], 99.05%; in test [10] it was 103.04%; in test [11] it was 108.1%; in test [12], 98.45%. Further, the Activity in test [13] is recorded as 87.91%; in test [14] it was 101.29%; in [15] it was 111.34%; in test [16], 123.53%; in test [17], 110.92%; in [18], 78.14%. The Activity in test [19] is listed as 100.34%; in test [20], 85.19%.

For `O=C(NCCc1ccc(Cl)cc1)c1[nH]c2ccccc2c1Cl`, the Activity in test [1] is recorded as 108.58%; in test [2], 73.65%; in test [3], 160.82%; in [4] it was 113.7%; in test [5], 77.04%; in test [6] it was 86.84%. Further, the Activity in test [7] is recorded as 100.24%; in test [8] it was 96.34%; in test [9], 93.76%; in test [10] it was 100.48%; in test [11], 130.7%; in test [12], 100.14%. In addition, the Activity in test [13] is listed as 89.76%; in test [14], 98.39%; in test [15], 94.49%; in test [16], 97.59%; in test [17], 93.16%; in test [18] it was 91.27%. The results for the Activity in test [19] and in test [20] were 92.96% and 108.31%, respectively.

For `Nc1c(C(=O)NCc2ccccc2)sc2nc3c(cc12)C(=O)CCC3`, the Activity in test [1] is reported as 116.37%; in [2], 109.24%; in test [3], 115.8%; in test [4], 122.76%; in [5], 100.49%; in test [6], 111.91%. Besides, the Activity came to 100.02% in [7]; 114.43% in [8]; 124.94% in test [9]; 106.3% in [10]; 121.61% in [11]; 99.51% in test [12]. Further, the Activity in test [13] worked out at 113.06%; in [14], 117.75%; in test [15], 106.46%; in test [16] it was 133.04%; in test [17], 101.03%; in test [19], 103.07%. Also, the Activity in test [20] was 102.77%.

Take `O=C(NCCc1ccccc1)c1cc2cccc([N+](=O)[O-])c2[nH]1`: the Activity in test [1] is 90.5%; in [2], 62.13%; in test [3], 102.94%; in [4], 105.34%; in test [5], 117.41%; in [6] it was 91.43%. The Activity in test [7] worked out at 97.02%; in test [8], 94.36%; in [9], 101.06%; in test [10], 108.88%; in [11] it was 101.4%; in test [12] it was 97.58%. For the same compound, the Activity in [14] is 97.53%; in [15], 106.02%; in [16] it was 90.85%; in [17] it was 101.23%; in [18], 83.28%; in test [19], 94.33%. The Activity in test [20] turned out to be 86.81%.

As for `O=S(=O)(Oc1ccc(-c2cnc3ccccc3n2)cc1)c1ccccc1`, the Activity in test [1] is reported as 84.46%; in [2], 94.43%; in test [3] it was 82.7%; in test [4] it was 102.24%; in test [5], 60.82%; in test [6] it was 106.76%. Besides, the Activity in test [7] was determined as 96.02%; in test [8], 100.22%; in test [9] it was 130.45%; in test [10] it was 100.15%; in test [11], 109.62%; in test [12] it was 92.1%. Also, the Activity worked out at 108.13% in test [13]; 102.07% in test [14]; 111.44% in [15]; 110.82% in test [17]; 93.17% in test [18]; 95.36% in [19]. In test [20], the Activity was determined as 85.64%.
